From US12091425B2 (AMGEN INC., priority 2016, dated 2024)

What follows are compounds tested against T1, Mcl-1/Bim interaction, recombinant human Mcl-1 (171-327) (Homo sapiens, UniProt Q07820) (assay: Cell free Mcl-1: Bim Affinity Assay (Mcl-1 HTRF)). Conditions: TR-FRET, 0.1 nM Mcl-1 (171-327), 0.05 nM biotin-Bim (51-76).
T1 construct: made in house
T1 sequence (Q07820 171-327): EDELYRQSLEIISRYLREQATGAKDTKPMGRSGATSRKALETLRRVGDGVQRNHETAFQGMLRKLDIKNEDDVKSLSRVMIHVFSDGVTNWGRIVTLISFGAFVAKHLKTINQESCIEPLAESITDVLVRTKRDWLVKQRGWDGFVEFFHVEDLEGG
Format: binding
Method in brief: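 Biotin-Bim(51-76) peptide, TR-FRET readout, overnight incubation; IC50 from duplicate competition curves, 4-parameter fit.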
`CCC[C@@H]1CC/C=C/[C@H](O)[C@@H]2CC[C@H]2CN2C[C@@]3(CCCc4cc(Cl)ccc43)COc3ccc(cc32)C(=O)NS1(=O)=O` (single isomer, unassigned) [Example 434] showed an IC50 of 0.273 nM.
`CC[C@@H]1CC/C=C/C(NC(C)=O)[C@@H]2CC[C@H]2CN2C[C@@]3(CCCc4cc(Cl)ccc43)COc3ccc(cc32)C(=O)NS1(=O)=O` (stereo in doubt) [Example 1076, N-((1S,3′R,6′R,7′R,8′E,12′R)-6-chloro-12′-ethyl-13′,13′-dioxido-15′-oxo-3,4-dihydro-2H-spiro[naphthalene-1,22′-[20]oxa[13]thia[1,14]diazatetracyclo[14.7.2.0^3,6.0^19,24]pentacosa[8,16,18,24]tetraen]-7′-yl)acetamide] was tested, and the IC50 was 1.82 nM.
Compound `CC(=O)N1C[C@@H]2C/C=C/[C@H](O)[C@@H]3CC[C@H]3CN3C[C@@]4(CCCc5cc(Cl)ccc54)COc4ccc(cc43)C(=O)NS(=O)(=O)[C@H]2C1` (single isomer, unassigned) [Example 339] has an IC50 of 2.71 nM.
`CC(=O)N1C/C=C/CS(=O)(=O)NC(=O)c2ccc3c(c2)N(C[C@@H]2CC[C@H]2C1)C[C@@]1(CCCc2cc(Cl)ccc21)CO3.CC(=O)N1C/C=C\CS(=O)(=O)NC(=O)c2ccc3c(c2)N(C[C@@H]2CC[C@H]2C1)C[C@@]1(CCCc2cc(Cl)ccc21)CO3` (mixture of isomers) [Example 371, (1S,3′R,6′R,10′E)-8′-acetyl-6-chloro-3,4-dihydro-2H,15′H-spiro[naphthalene-1,22′-[20]oxa[13]thia[1,8,14]triazatetracyclo[14.7.2.0^3,6.0^19,24]pentacosa[10,16,18,24]tetraen]-15′-one 13′,13′-dioxide and (1S,3′R,6′R,10′Z)-8′-acetyl-6-chloro-3,4-dihydro-2H,15′H-spiro[naphthalene-1,22′-[20]oxa[13]thia[1,8,14]triazatetracyclo[14.7.2.0^3,6.0^19,24]pentacosa[10,16,18,24]tetraen]-15′-one 13′,13′-dioxide] was tested, and the IC50 was 20.8 nM.
In the case of `O=C1NS(=O)(=O)[C@@H]2CC[C@H]2CCC[C@H](O)[C@@H]2CC[C@H]2CN2C[C@@]3(CCCc4cc(Cl)ccc43)COc3ccc1cc32` [Example 91, (1S,3′R,6′R,7′S,11′R,14′R)-6-chloro-7′-hydroxy-3,4-dihydro-2H,17′H-spiro[naphthalene-1,24′-[22]oxa[15]thia[1,16]diazapentacyclo[16.7.2.0^3,6.0^11,14.0^21,26]heptacosa[18,20,26]trien]-17′-one 15′,15′-dioxide], the IC50 is reported as 3.06 nM.
For `C[C@@H]1[C@@H](C)C[C@H](CCN2CCOCC2)/C=C/[C@@H]2CC[C@H]2CN2C[C@@]3(CCCc4cc(Cl)ccc43)COc3ccc(cc32)C(=O)NS1(=O)=O` [Example 115, (1S,3′R,6′S,7′E,9′R,11′S,12′R)-6-chloro-11′,12′-dimethyl-9′-(2-(4-morpholinyl)ethyl)-3,4-dihydro-2H,15′H-spiro[naphthalene-1,22′-[20]oxa[13]thia[1,14]diazatetracyclo[14.7.2.0^3,6.0^19,24]pentacosa[7,16,18,24]tetraen]-15′-one 13′,13′-dioxide], the IC50 was 2.71 nM.
Work on `CC[C@@H]1CC/C=C/[C@H](OCC(=O)N(C)C)[C@@H]2CC[C@H]2CN2C[C@@]3(CCCc4cc(Cl)ccc43)COc3ccc(cc32)C(=O)NS1(=O)=O` [Example 973] yielded an IC50 of 0.378 nM.
`O=C1NS(=O)(=O)CCCCNC(=O)[C@@H]2CC[C@H]2CN2C[C@@]3(CCCc4cc(Cl)ccc43)COc3ccc1cc32` [Example 98, (1S,3′R,6′R)-6-chloro-3,4-dihydro-2H,7′H,15′H-spiro[naphthalene-1,22′-[20]oxa[13]thia[1,8,14]triazatetracyclo[14.7.2.0^3,6.0^19,24]pentacosa[16,18,24]triene]-7′,15′-dione 13′,13′-dioxide] was tested, and the IC50 was 15.5 nM.

Same assay, conditions: cell free Mcl-1:Bim TR-FRET, recombinant human Mcl-1 (171-327)
`O=C1NS(=O)(=O)CCCCC(O)CC2CCC2CN2CC3(CCCc4cc(Cl)ccc43)COc3ccc1cc32` (single isomer, unassigned) [Example 881, (1S,3′R,6′S,8′S)-6-chloro-8′-hydroxy-3,4-dihydro-2H,15′H-spiro[naphthalene-1,22′-[20]oxa[13]thia[1,14]diazatetracyclo[14.7.2.0^3,6.0^19,24]pentacosa[16,18,24]trien]-15′-one 13′,13′-dioxide or (1S,3′R,6′S,8′R)-6-chloro-8′-hydroxy-3,4-dihydro-2H,15′H-spiro[naphthalene-1,22′-[20]oxa[13]thia[1,14]diazatetracyclo[14.7.2.0^3,6.0^19,24]pentacosa[16,18,24]trien]-15′-one 13′,13′-dioxide] was tested, and the IC50 was 22.2 nM.
Work on `O=C1NS(=O)(=O)CCOCCC[C@@H]2CC[C@H]2CN2C[C@@]3(CCc4cc(Cl)ccc43)COc3ccc1cc32` (single isomer, unassigned) [Example 816] yielded an IC50 of 4.72 nM.
With “(3R,6R,7R,11E,22S)-6′-chloro-7-hydroxy-3′,4′-dihydro-2′H,15H-spiro[9,20-dioxa-13-thia-1,14-diazatetracyclo[14.7.2.0^3,6.0^19,24]pentacosa-11,16,18,24-tetraene-22,1′-naphthalen]-15-one 13,13-dioxide or (3R,6R,7S,11E,22S)-6′-chloro-7-hydroxy-3′,4′-dihydro-2′H,15H-spiro[9,20-dioxa-13-thia-1,14-diazatetracyclo[14.7.2.0^3,6.0^19,24]pentacosa-11,16,18,24-tetraene-22,1′-naphthalen]-15-one 13,13-dioxide [Example 863]” the IC50 was 5.38 nM.
`O=C1NS(=O)(=O)CCC/C=C/C[C@H](O)[C@@H]2CC[C@H]2CN2C[C@@]3(CCCc4cc(Cl)ccc43)COc3ccc1cc32` (single isomer, unassigned) [Example 833, (1S,3′R,6′R,7′S,9′E)-6-chloro-7′-hydroxy-3,4-dihydro-2H,16′H-spiro[naphthalene-1,23′-[21]oxa[14]thia[1,15]diazatetracyclo[15.7.2.0^3,6.0^20,25]hexacosa[9,17,19,25]tetraen]-16′-one 14′,14′-dioxide or (1S,3′R,6′R,7′S,9′Z)-6-chloro-7′-hydroxy-3,4-dihydro-2H,16′H-spiro[naphthalene-1,23′-[21]oxa[14]thia[1,15]diazatetracyclo[15.7.2.0^3,6.0^20,25]hexacosa [9,17,19,25]tetraen]-16′-one 14′,14′-dioxide] was tested, and the IC50 was 5.12 nM.
`CC(C)[C@@H]1CCCC[C@@H](O)[C@@H]2CC[C@H]2CN2C[C@@]3(CCCc4cc(Cl)ccc43)COc3ccc(cc32)C(=O)NS1(=O)=O` (single isomer, unassigned) [Example 754] gave an IC50 of 8.93 nM.
For `C[C@@H]1CC/C=C/C(=O)[C@@H]2CC[C@H]2CN2C[C@@]3(CCCc4cc(Cl)ccc43)COc3ccc(cc32)C(=O)NS1(=O)=O` [Example 604, (1S,3′R,6′R,8′E,12′R)-6-chloro-12′-methyl-3,4-dihydro-2H,7′H,15′H-spiro[naphthalene-1,22′-[20]oxa[13]thia[1,14]diazatetracyclo[14.7.2.0^3,6.0^19,24]pentacosa [8,16,18,24]tetraene]-7′,15′-dione 13′,13′-dioxide], the IC50 was 9.58 nM.
Work on `O=C1C[C@H](O)[C@@H]2CC[C@H]2CN2C[C@@]3(CCCc4cc(Cl)ccc43)COc3ccc(cc32)C(=O)NS(=O)(=O)CCN1` (single isomer, unassigned) [Example 680] yielded an IC50 of 26.8 nM.
`O=C1CC[C@@H]2CC[C@H]2CN2C[C@@]3(CCCc4cc(Cl)ccc43)COc3ccc(cc32)C(=O)NS(=O)(=O)CCN1` [Example 945, (1S,3′R,6′S)-6-chloro-3,4-dihydro-2H,9′H,15′H-spiro[naphthalene-1,22′-[20]oxa[13]thia[1,10,14]triazatetracyclo[14.7.2.0^3,6.0^19,24]pentacosa[16,18,24]triene]-9′,15′-dione 13′,13′-dioxide] showed an IC50 of 12 nM.
Compound `O=C1NS(=O)(=O)CCCCC[C@H](NCCO)[C@@H]2CC[C@H]2CN2C[C@@]3(CCCc4cc(Cl)ccc43)COc3ccc1cc32` (single isomer, unassigned) [Example 929] has an IC50 of 40 nM.
Compound `CC[C@H]1CC/C=C/[C@H](O)[C@@H]2CC[C@H]2CN2C[C@@]3(CCc4cc(Cl)ccc43)COc3ccc(cc32)C(=O)NS1(=O)=O` (single isomer, unassigned) [Example 700] has an IC50 of 27.7 nM.
Work on `O=C1NS(=O)(=O)C[C@@H](CO)/C=C/C[C@H](O)[C@@H]2CC[C@H]2CN2C[C@@]3(CCCc4cc(Cl)ccc43)COc3ccc1cc32` (single isomer, unassigned) [Example 707] yielded an IC50 of 2.25 nM.
Work on `O=C1NS(=O)(=O)CCOC/C=C/C2CCC2CN2C[C@@]3(CCCc4cc(Cl)ccc43)COc3ccc1cc32` (stereo in doubt) [Example 826, (3S,6R,7E,22S)-6′-chloro-3′,4′-dihydro-2′H,15H-spiro[10,20-dioxa-13-thia-1,14-diazatetracyclo[14.7.2.0^3,6.0^19,24]pentacosa-7,16,18,24-tetraene-22,1′-naphthalen]-15-one 13,13-dioxide] yielded an IC50 of 10.5 nM.
With `O=C1NS(=O)(=O)CCCCC[C@@H](O)[C@@H]2CC[C@H]2CN2C[C@@]3(CCCc4cc(Cl)ccc43)COc3ccc1cc32` [Example 843, (1S,3′R,6′R,7′R)-6-chloro-7′-hydroxy-3,4-dihydro-2H,15′H-spiro[naphthalene-1,22′-[20]oxa[13]thia[1,14]diazatetracyclo[14.7.2.0^3,6.0^19,24]pentacosa [16,18,24]trien]-15′-one 13′,13′-dioxide] the IC50 was 6.8 nM.
With `O=C1NS(=O)(=O)CCCCC[C@@H](NO)[C@@H]2CC[C@H]2CN2C[C@@]3(CCCc4cc(Cl)ccc43)COc3ccc1cc32` (single isomer, unassigned) [Example 933, (1S,3′R,6′R,7′R)-6-chloro-7′-(hydroxyamino)-3,4-dihydro-2H,15′H-spiro[naphthalene-1,22′-[20]oxa[13]thia[1,14]diazatetracyclo[14.7.2.0^3,6.0^19,24]pentacosa [16,18,24]trien]-15′-one 13′,13′-dioxide or (1S,3′R,6′R,7′S)-6-chloro-7′-(hydroxyamino)-3,4-dihydro-2H,15′H-spiro[naphthalene-1,22′-[20]oxa[13]thia[1,14]diazatetracyclo[14.7.2.0^3,6.0^19,24]pentacosa [16,18,24]trien]-15′-one 13′,13′-dioxide] the IC50 was 15 nM.
